Assay results reported in ChEMBL document CHEMBL1129922, “Preparation and antibacterial activity of pyridopyridone analogs: C-1 modifications” (1997).
≈ marks a conversion by molar mass, not a printed value.

Assays:
Type in all cases: functional
[1] = system: Staphylococcus aureus; test: In vitro antibacterial activity against Staphylococcus aureus 1775 organism expressed as minimum inhibitory concentration (MIC)
[2] = system: Enterococcus faecium; test: In vitro antibacterial activity against Enterococcus faecium ATCC 8043 organism, activity expressed as minimum inhibitory concentration (MIC)
[3] = system: Escherichia coli; test: In vitro antibacterial activity against Escherichia coli juhl organism, activity expressed as minimum inhibitory concentration (MIC)
[4] = system: Pseudomonas aeruginosa; test: In vitro antibacterial activity against Pseudomonas aeruginosa K799/WT organism, activity expressed as minimum inhibitory concentration (MIC)
[5] = system: Streptococcus pyogenes; test: In vitro antibacterial activity against Streptococcus pyogenes 930 organism, activity expressed as minimum inhibitory concentration (MIC)
[6] = system: Staphylococcus aureus; test: In vitro antibacterial activity against Staphylococcus aureus NCTC 10649M organism expressed as minimum inhibitory concentration (MIC)

MIC [1] [µg/mL]	MIC [2] [µg/mL]	MIC [3] [µg/mL]	MIC [4] [µg/mL]	MIC [5] [µg/mL]	MIC [6] [µg/mL]	Structure (SMILES)
> 100	1.56 (≈ 4.71 µM)	0.2 (≈ 0.604 µM)	0.78 (≈ 2.35 µM)	1.56 (≈ 4.71 µM)	0.78 (≈ 2.35 µM)	C=Cc1cc(C(=O)O)c(=O)n2cc(F)c(N3CC[C@H](N)C3)c(C)c12
50 (≈ 133 µM)	6.2 (≈ 16.5 µM)	–	12.5 (≈ 33.3 µM)	3.1 (≈ 8.26 µM)	1.56 (≈ 4.16 µM)	Cc1c(N2CC[C@H](N)C2)c(F)cn2c(=O)c(C(=O)O)cc(CC(C)(C)C)c12
25 (≈ 69.6 µM)	6.2 (≈ 17.3 µM)	0.78 (≈ 2.17 µM)	12.5 (≈ 34.8 µM)	6.2 (≈ 17.3 µM)	1.56 (≈ 4.34 µM)	Cc1c(N2CC[C@H](N)C2)c(F)cn2c(=O)c(C(=O)O)cc(CC3CC3)c12
12.5 (≈ 39.1 µM)	0.39 (≈ 1.22 µM)	0.05 (≈ 0.157 µM)	3.1 (≈ 9.71 µM)	0.39 (≈ 1.22 µM)	0.1 (≈ 0.313 µM)	Cc1cc(C(=O)O)c(=O)n2cc(F)c(N3CC[C@H](N)C3)c(C)c12
12.5 (≈ 34.8 µM)	0.39 (≈ 1.09 µM)	0.05 (≈ 0.139 µM)	3.1 (≈ 8.63 µM)	0.39 (≈ 1.09 µM)	0.1 (≈ 0.278 µM)	Cc1c(N2CC[C@H](N)C2)c(F)cn2c(=O)c(C(=O)O)cc(C3CCC3)c12
> 100	> 100	12.5 (≈ 34.4 µM)	100 (≈ 275 µM)	–	50 (≈ 138 µM)	COCCc1cc(C(=O)O)c(=O)n2cc(F)c(N3CC[C@H](N)C3)c(C)c12
> 100	12.5 (≈ 34.6 µM)	1.56 (≈ 4.32 µM)	50 (≈ 138 µM)	50 (≈ 138 µM)	6.2 (≈ 17.2 µM)	CCC(C)c1cc(C(=O)O)c(=O)n2cc(F)c(N3CC[C@H](N)C3)c(C)c12 (stereo not given in full)
50 (≈ 134 µM)	12.5 (≈ 33.5 µM)	0.78 (≈ 2.09 µM)	25 (≈ 66.9 µM)	12.5 (≈ 33.5 µM)	3.1 (≈ 8.3 µM)	Cc1c(N2CC[C@H](N)C2)c(F)cn2c(=O)c(C(=O)O)cc(C3CCCC3)c12
> 100	1.56 (≈ 4.52 µM)	1.56 (≈ 4.52 µM)	3.1 (≈ 8.98 µM)	1.56 (≈ 4.52 µM)	0.78 (≈ 2.26 µM)	C=CCc1cc(C(=O)O)c(=O)n2cc(F)c(N3CC[C@H](N)C3)c(C)c12
6.2 (≈ 17.8 µM)	0.2 (≈ 0.576 µM)	0.39 (≈ 1.12 µM)	1.56 (≈ 4.49 µM)	0.2 (≈ 0.576 µM)	0.1 (≈ 0.288 µM)	Cc1c(N2CC[C@H](N)C2)c(F)cn2c(=O)c(C(=O)O)cc(C(C)C)c12
> 100	25 (≈ 81.9 µM)	0.39 (≈ 1.28 µM)	6.2 (≈ 20.3 µM)	12.5 (≈ 40.9 µM)	3.1 (≈ 10.2 µM)	Cc1c(N2CC[C@H](N)C2)c(F)cn2c(=O)c(C(=O)O)ccc12
0.78 (≈ 2.26 µM)	0.02 (≈ 0.0579 µM)	0.01 (≈ 0.029 µM)	0.05 (≈ 0.145 µM)	0.02 (≈ 0.0579 µM)	0.01 (≈ 0.029 µM)	Cc1c(N2CC[C@H](N)C2)c(F)cn2c(=O)c(C(=O)O)cc(C3CC3)c12 [ABT-719]
